ChEMBL document CHEMBL1201862, “PubChem BioAssay data set” (2004)
Active and inactive are the calls of the source.

Assays:
SN12K1 = assay: cells; format: functional; details: Homo sapiens
P388/ADR = assay: cells; format: functional; details: Mus musculus
P388 = assay: cells; format: functional; details: Mus musculus
Nonstructural protein 1 = Nonstructural protein 1 (Influenza A virus, UniProt Q194T2); format: functional, Influenza A virus (A/California/07/2009(H1N1))
[1] = Trypanosoma cruzi growth suppression in host cells – NIH3T3 host cells, beta-gal luminescence, confirmation (AID 2044); format: functional, cell-based;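 also: intracellular parasites grown in NIH/3T3 mouse fibroblasts as host cells; luminescent beta-galactosidase reporter signal from transgenic T. cruzi replicating inside host cells; inhibitors lower the luminescence signal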
[2] = test system: Streptococcus sp. 'group A'; assay: Streptococcus pyogenes SK(-)GAS viability under kanamycin – luminescence, BacTiterGlo, confirmation, counter-screen for streptokinase expression inhibitor project, dose response (AID 1900); format: functional, organism-based
[3] = NIH3T3 cell viability loss – ATP luminescence, mouse fibroblasts, counter-screen, dose response (AID 2010); format: functional, cell-based;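 also: cells exposed to compound for about 90 hours before reading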
Streptokinase A = target: T1, Streptokinase A (Streptococcus pyogenes serotype M1, UniProt P10520); assay: viability-normalized secreted streptokinase activity reduction – plasminogen activation absorbance, OD405, dose response (AID 1914); format: functional, Streptococcus pyogenes M1 GAS;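 also: secreted streptokinase activity via plasminogen activation per viability signal from cell pellet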
T1 sequence (P10520 whole entry): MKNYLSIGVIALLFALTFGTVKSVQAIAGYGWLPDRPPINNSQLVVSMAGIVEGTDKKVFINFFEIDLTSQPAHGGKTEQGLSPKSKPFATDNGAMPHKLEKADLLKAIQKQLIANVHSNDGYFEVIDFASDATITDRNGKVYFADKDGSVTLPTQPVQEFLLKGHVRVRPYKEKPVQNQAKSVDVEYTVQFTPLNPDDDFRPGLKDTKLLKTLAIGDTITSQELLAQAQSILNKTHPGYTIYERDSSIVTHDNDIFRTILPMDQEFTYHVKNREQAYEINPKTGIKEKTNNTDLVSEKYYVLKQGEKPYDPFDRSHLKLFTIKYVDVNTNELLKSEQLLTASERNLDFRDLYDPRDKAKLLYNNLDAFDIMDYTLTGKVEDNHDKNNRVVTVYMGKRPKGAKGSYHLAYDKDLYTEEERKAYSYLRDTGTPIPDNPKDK

Streptococcus = assay: GAS UMAA2166 growth inhibition – luminescence, BacTiterGlo, counter-screen for streptokinase expression inhibitor project, dose response (AID 1915); format: functional, organism-based;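 also: potency for reduction of bacterial viability or growth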
[4] = target: Heat shock protein HSP 90-alpha (Homo sapiens, UniProt P07900); format: functional, organism-based
[5] = viability of PTEN-deleted HCT116 cells – cell-based, HCT116 PTEN knockout, dose response (AID 1047); format: functional;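 also: HCT116 colon tumor cells with PTEN knocked out; cells exposed to compound for 60 hours before readout; potency for loss of cell viability measured by luminescence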
[6] = viability of HCT116 lacking mutant beta-catenin – cell-based, human colon tumor, dose response (AID 1045); format: functional;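 also: HCT116 colon tumor cells with beta catenin knocked out; cells exposed to compound for 60 hours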
Genome polyprotein = Genome polyprotein (dengue virus type 2, UniProt P29990); assay: flavivirus cap methylation enzyme inhibition – biochemical, confirmation dose response, primary screen (AID 588689); format: functional
Protein skinhead-1 = target: T2, Protein skinhead-1 (Caenorhabditis elegans, UniProt P34707); format: functional
T2 sequence (P34707 whole entry): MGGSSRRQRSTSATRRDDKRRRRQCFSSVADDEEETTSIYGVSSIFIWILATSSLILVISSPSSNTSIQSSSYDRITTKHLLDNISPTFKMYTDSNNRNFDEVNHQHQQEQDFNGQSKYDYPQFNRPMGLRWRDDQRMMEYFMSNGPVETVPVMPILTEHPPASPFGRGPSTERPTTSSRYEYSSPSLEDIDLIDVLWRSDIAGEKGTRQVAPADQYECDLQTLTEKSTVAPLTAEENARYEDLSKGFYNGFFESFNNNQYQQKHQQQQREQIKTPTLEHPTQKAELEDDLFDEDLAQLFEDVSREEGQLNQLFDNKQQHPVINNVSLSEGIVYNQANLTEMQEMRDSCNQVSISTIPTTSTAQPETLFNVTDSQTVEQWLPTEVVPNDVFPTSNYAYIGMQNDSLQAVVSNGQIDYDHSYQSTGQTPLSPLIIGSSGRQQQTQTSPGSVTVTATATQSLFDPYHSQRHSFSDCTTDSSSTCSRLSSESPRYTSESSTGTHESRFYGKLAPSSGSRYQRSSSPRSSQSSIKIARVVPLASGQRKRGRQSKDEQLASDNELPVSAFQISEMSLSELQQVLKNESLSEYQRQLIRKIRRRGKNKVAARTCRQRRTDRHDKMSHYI

[7] = Luminescence Cell-Based Dose Confirmation HTS to Identify Inhibitors of Platelet Dense Granule Release. [Related pubchem assays: 1663 (Primary HTS), 1678 (Summary of Project)]; format: functional
[8] = target: Luciferin 4-monooxygenase (Photinus pyralis, UniProt P08659); assay: inhibition of purified Photinus pyralis luciferase – biochemical, luminescence, dose response (AID 1891)
[9] = target: DNA dC->dU-editing enzyme APOBEC-3G (Homo sapiens, UniProt Q9HC16); assay: Dose Response confirmation of small molecule APOBEC3G DNA Deaminase Inhibitors via a fluorescence-based single-stranded DNA deaminase assay. [Related pubchem assays (depositor defined):AID493012, AID493028]; format: functional
[10] = THP-1 cell cytotoxicity, dose response, cytotoxicity control for non-replicating M. tuberculosis project (AID 489025); format: functional
[11] = target: T3, DNA repair protein RAD52 homolog (Homo sapiens, UniProt P43351); format: functional, biochemical
T3 sequence (P43351 whole entry): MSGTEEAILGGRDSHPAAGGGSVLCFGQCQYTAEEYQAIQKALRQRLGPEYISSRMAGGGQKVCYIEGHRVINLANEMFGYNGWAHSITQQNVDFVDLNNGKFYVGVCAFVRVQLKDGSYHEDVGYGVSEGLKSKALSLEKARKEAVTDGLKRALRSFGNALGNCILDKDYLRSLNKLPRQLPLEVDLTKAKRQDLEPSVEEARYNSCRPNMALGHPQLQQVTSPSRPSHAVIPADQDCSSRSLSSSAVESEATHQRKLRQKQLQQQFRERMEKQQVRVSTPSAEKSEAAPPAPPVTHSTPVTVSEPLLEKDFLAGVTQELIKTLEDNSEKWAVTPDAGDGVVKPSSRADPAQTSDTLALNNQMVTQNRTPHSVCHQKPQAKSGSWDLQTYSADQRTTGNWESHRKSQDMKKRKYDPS

cells = format: functional
[12] = target: T4, High affinity choline transporter 1 (Homo sapiens, UniProt Q9GZV3); assay: human choline transporter blockers, potency – cell-based, 5-point CRC, membrane potential dye, dose response (AID 504840); format: functional
T4 sequence (Q9GZV3 whole entry): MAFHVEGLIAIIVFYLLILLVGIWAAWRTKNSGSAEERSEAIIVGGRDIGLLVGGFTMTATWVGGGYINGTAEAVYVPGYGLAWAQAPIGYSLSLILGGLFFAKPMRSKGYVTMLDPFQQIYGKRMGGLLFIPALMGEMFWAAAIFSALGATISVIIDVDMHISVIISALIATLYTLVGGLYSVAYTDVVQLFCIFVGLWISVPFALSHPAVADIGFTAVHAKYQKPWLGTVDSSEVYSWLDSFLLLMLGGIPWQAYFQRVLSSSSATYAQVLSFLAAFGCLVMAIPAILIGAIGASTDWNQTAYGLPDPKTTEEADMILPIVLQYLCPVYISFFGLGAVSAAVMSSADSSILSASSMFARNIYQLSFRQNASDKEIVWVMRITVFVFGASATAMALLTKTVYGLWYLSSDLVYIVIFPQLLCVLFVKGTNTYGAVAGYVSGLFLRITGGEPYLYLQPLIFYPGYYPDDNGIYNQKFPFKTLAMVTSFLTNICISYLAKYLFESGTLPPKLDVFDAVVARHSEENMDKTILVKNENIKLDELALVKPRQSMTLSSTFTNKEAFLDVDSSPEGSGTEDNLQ

[13] = target: Glyceraldehyde-3-phosphate dehydrogenase (Homo sapiens, UniProt P04406)
Sequence of Glyceraldehyde-3-phosphate dehydrogenase (P04406 whole entry): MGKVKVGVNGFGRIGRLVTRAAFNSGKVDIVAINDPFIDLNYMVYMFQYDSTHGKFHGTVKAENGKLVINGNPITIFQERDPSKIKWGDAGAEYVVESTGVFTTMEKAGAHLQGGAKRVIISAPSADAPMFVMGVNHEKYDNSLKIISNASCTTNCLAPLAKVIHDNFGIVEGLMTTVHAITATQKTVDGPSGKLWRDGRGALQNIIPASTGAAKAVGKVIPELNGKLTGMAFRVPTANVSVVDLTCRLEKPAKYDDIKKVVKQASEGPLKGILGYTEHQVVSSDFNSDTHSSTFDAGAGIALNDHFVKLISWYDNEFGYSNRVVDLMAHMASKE

Sequence of Nonstructural protein 1 (Q194T2 whole entry): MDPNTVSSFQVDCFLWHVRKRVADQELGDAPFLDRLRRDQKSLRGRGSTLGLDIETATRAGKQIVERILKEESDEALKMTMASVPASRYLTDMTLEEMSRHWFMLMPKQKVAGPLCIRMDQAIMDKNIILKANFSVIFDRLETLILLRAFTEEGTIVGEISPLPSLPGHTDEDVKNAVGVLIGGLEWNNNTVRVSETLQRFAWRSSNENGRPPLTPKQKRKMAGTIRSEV
Sequence of Genome polyprotein (P29990 2492-3391 limits assumed): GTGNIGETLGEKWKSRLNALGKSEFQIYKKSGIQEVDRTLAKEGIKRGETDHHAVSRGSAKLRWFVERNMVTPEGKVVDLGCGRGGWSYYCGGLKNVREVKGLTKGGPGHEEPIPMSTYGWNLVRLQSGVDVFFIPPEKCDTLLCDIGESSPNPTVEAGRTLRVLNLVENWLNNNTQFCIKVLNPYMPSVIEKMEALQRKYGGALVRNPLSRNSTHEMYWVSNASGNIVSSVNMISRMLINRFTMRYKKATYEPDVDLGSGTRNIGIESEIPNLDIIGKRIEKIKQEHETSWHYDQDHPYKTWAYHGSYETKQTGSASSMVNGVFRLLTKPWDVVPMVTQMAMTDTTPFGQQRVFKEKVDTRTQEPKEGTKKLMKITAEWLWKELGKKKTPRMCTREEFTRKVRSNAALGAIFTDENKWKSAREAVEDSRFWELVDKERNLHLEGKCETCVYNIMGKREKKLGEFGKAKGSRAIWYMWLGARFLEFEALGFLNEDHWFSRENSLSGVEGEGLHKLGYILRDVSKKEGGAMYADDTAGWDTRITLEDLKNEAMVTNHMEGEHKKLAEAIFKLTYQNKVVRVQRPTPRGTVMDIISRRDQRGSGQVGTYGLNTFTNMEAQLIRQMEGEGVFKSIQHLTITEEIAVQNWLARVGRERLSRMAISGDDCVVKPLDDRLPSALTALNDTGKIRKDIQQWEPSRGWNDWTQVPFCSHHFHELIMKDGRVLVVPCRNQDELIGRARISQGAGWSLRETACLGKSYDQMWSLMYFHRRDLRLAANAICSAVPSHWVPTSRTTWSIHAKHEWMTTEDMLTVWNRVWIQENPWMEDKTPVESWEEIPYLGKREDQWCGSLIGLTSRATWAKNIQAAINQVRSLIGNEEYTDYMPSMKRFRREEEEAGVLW
Sequence of DNA dC->dU-editing enzyme APOBEC-3G (Q9HC16 whole entry): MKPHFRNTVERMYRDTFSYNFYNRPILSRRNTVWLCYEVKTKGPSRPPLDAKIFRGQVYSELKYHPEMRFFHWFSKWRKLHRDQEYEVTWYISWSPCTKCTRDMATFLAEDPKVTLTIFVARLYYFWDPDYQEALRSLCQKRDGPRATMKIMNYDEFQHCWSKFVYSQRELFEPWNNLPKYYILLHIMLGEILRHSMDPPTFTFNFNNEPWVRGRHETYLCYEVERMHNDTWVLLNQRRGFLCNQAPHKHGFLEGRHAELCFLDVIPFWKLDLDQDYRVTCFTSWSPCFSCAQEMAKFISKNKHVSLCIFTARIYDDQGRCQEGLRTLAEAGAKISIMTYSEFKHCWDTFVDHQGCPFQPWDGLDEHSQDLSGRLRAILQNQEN
Sequence of Luciferin 4-monooxygenase (P08659 whole entry): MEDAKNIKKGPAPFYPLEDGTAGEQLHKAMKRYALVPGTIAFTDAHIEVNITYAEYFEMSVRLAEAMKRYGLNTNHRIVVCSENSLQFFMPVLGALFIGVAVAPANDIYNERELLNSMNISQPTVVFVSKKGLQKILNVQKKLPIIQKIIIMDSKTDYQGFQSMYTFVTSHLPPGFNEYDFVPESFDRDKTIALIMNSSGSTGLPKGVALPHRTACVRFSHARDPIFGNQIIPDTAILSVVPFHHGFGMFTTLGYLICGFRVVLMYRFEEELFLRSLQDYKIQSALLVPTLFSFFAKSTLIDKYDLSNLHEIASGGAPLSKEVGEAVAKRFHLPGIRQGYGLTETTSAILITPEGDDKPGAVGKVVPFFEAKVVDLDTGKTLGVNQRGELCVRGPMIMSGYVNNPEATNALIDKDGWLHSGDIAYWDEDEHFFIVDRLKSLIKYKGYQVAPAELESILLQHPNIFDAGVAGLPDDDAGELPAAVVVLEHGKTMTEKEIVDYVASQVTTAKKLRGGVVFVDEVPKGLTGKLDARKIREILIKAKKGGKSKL

## O=C[C@@H](CO)O[C@H](C=O)n1cnc2c(=O)nc[nH]c21
SN12K1
  GI50: 284 µM (inactive)
P388/ADR
  GI50: 69.2 µM (inactive)
P388
  GI50: 76 µM (inactive)

## Cn1cccc1C(=O)Nc1nc(-c2ccccn2)cs1
Nonstructural protein 1
  IC50: 11 µM (active)
[1]
  EC50: 2.28 µM (active)
[2]
  EC50: 18.4 µM (active)
[3]
  EC50: 4.47 µM (active)
Streptokinase A
  EC50: > 150 µM (not active)
Streptococcus
  EC50: 58.3 µM (active)

## COc1ccc2oc(/C=C/N(C)C)c(C(=O)c3ccc(Cl)cc3)c2c1
[4]
  AC50: 3.8 µM (active)

## COc1ccc2nc(Nc3nc4ccc(NC(C)=O)cc4s3)sc2c1
[5]
  EC50: 16.9 µM (active)
[6]
  EC50: 14 µM (active)

## COc1ccc(/C(Cl)=C(\C=O)c2ccc(OC)c(OC)c2)cc1OC
SN12K1
  GI50: 80.9 µM (inactive)
P388/ADR
  GI50: 10.5 µM (inactive)
P388
  GI50: 35.3 µM (inactive)

## CN1C(=O)NC(=O)/C(=C/c2ccc(C(=O)O)cc2)C1=O
Genome polyprotein
  IC50: 85.1 µM (active)

## COc1cccc(N[C@@H]2c3cc4c(cc3C(c3cc(OC)c(O)c(OC)c3)[C@H]3C(=O)OCC32)OCO4)c1 (some centres undefined)
SN12K1
  GI50: 0.0615 µM (active)
P388/ADR
  GI50: 0.0635 µM (active)
P388
  GI50: < 0.01 µM (active)

## COc1ccc2c(c1)-c1nn(CCCN(C)C)c3ccc([N+](=O)[O-])c(c13)N2
SN12K1
  GI50: 0.119 µM (active)
P388/ADR
  GI50: 0.281 µM (active)
P388
  GI50: 0.163 µM (active)

## c1ccc(-c2cnnc(-c3ccccn3)n2)cc1
Nonstructural protein 1
  IC50: 12.9 µM (active)

## O=C(/C=C/Nc1ccc(Oc2ccccc2)cc1)c1ccco1
Protein skinhead-1
  IC50: > 100 µM (inactive)
[7]
  EC50: 1.64 µM (active)
[8]
  EC50: 0.617 µM (active)

## COc1ccc2c(c1)OCCc1cn[nH]c1-2
SN12K1
  GI50: 38.2 µM (inactive)
P388/ADR
  GI50: 34 µM (inactive)
P388
  GI50: 32.5 µM (inactive)

## Cn1c(-c2cc(Br)ccc2O)n[nH]c1=S
[9]
  IC50: 8.33 µM (active)
Streptokinase A
  EC50: > 150 µM (not active)

## COC(=O)/C=c1/sc2nc3ccccc3n2c1=O
[9]
  IC50: 30.8 µM (active)

## CN(C)CC/C=C1/c2ccc(F)cc2Sc2ccc(Cl)cc21
[10]
  CC50: 18.9 µM (active)
[11]
  AC50: 12.8 µM (active)
cells
  IC50: 18.6 µM (active)

## CCCCn1c(SCn2nnc3ccccc3c2=O)nc2cc(S(N)(=O)=O)ccc21
[12]
  IC50: 15.8 µM (active)

## Cc1noc(C)c1CSc1nnc2scc(-c3ccc(Cl)cc3)n12
[7]
  EC50: > 112 µM (not active)
[8]
  EC50: > 112 µM (not active)

## O=C(c1ccc(-c2ccccc2)cc1)C1CCCN(C(=O)c2cncs2)C1 (centres undefined)
[4]
  AC50: 4.29 µM (active)

## O=C(CN1CCCCC1)N1CCCc2c1c(=O)oc1ccc(OCc3ccccc3)cc21
[5]
  EC50: 39.9 µM (active)
[6]
  EC50: 48.4 µM (active)

## COc1ccc(-n2c(C)cc(C(=O)CSc3nnc(-c4ccoc4C)n3C)c2C)cc1
[12]
  IC50: 13.8 µM (active)

## CSc1nc2c(ncn2C2OC(CO)C(O)C(O)C2O)c(=O)[nH]1 (centres undefined)
SN12K1
  GI50: > 100 µM (inactive)
P388/ADR
  GI50: > 10 µM (inactive)
P388
  GI50: > 100 µM (inactive)

## CCOC(=O)C1CCN(Cc2c(O)oc3ccccc3c2=O)CC1
[12]
  IC50: 6.91 µM (active)

## COc1ccc(-n2cc(-c3ccccc3)c3c(N4CCN(CCO)CC4)ncnc32)cc1
[5]
  EC50: 32.8 µM (active)
[6]
  EC50: 30.3 µM (active)

## C=CCOc1ccccc1/C=c1\sc2nc(=O)c(C)nn2c1=O
Genome polyprotein
  IC50: 12.1 µM (active)

## C/C(=C/C(=O)Nc1ccccc1)Nc1onc(C)c1C
SN12K1
  GI50: > 100 µM (inactive)
P388
  GI50: > 100 µM (inactive)

## O=C(O)c1cccc(NS(=O)(=O)c2ccc(-c3ccc(S(=O)(=O)Nc4cccc(C(=O)O)c4)cc3)cc2)c1
Genome polyprotein
  IC50: 49.5 µM (active)

## O=S(=O)(c1ccc(Br)cc1)c1nc(-c2ccccc2)oc1NCCN1CCOCC1
Nonstructural protein 1
  IC50: > 100 µM (active)

## O=C(O)C1Nc2ccccc2S(=O)(=O)N1 (centres undefined)
[13]
  IC50: > 100 µM (not active)
